According to patent US10368545B2, “Substituted 2-thioimidazolylcarboxamides as pesticides” (BAYER CROPSCIENCE AKTIENGESELLSCHAFT, priority 2015, dated 2019):
Values joined by “and” are separate entries in the source; they are usually repeats but may differ in a detail not shown here. Equal values may be shown once. Read-outs that look alike come from different tables or passages of the source.

Assays:
[1] = log P by HPLC on reversed-phase C18 columns (OECD Guideline 117); type: physicochemical; conditions: for chromatographic logP: reversed-phase C18 HPLC column; for logP[a]: method [a]; for logP[b]: method [b]; for log P[a]: acidic range; for log P[n]: neutral range
Description: The log P values were determined in accordance with OECD Guideline 117 (EC Directive 92/69/EEC) by HPLC (high-performance liquid chromatography) using reversed-phase (RP) columns (C18), by the following methods:
[a] The LC-MS determination in the acidic range was carried out at pH 2.7 with 0.1% aqueous formic acid and acetonitrile (contains 0.1% formic acid) as mobile phases; linear gradient from 10% acetonitrile to 95% acetonitrile.
[b] LC-MS determination in the neutral range was carried out at pH 7.8 with 0.001 molar aqueous ammonium hydrogencarbonate solution and acetonitrile as mobile phases; linear gradient from 10% acetonitrile to 95% acetonitrile.

[2] = test system: green peach aphid (Myzus persicae); experiment: Myzus persicae spray test (Chinese cabbage leaf discs); type: in vivo; conditions: application rate 500 g/ha, after 5 or 6 days, Chinese cabbage leaf discs
Description: Myzus persicae—Spray Test
Solvent: 78 parts by weight of acetone • • 1.5 parts by weight of dimethylformamide
Emulsifier: alkylaryl polyglycol ether
To produce a suitable active compound preparation, 1 part by weight of active compound is dissolved using the stated parts by weight of solvent and made up with water containing an emulsifier concentration of 1000 ppm until the desired concentration is attained. To produce further test concentrations, the preparation is diluted with emulsifier-containing water.
Discs of Chinese cabbage leaves (Brassica pekinensis) infested by all stages of the green peach aphid (Myzus persicae) are sprayed with an active compound preparation of the desired concentration.
After 5 or 6 days, the efficacy in % is determined. 100% means that all the aphids were killed; 0% means that no aphids were killed.

[3] = pH 2.7, acidic range, pH 2.7, 0.1% aqueous formic acid / acetonitrile, read-out: log P[a]
[4] = pH 2.7, method [a], read-out: logP[a]
[5] = pH 7.8, method [b], read-out: logP[b]
[6] = pH 2.7, 0.1% aqueous formic acid / acetonitrile
[7] = pH 7.8, 0.001 molar aqueous ammonium hydrogencarbonate / acetonitrile

Row | logP[a] [1] | logP[b] [1] | SMILES | also measured
1 | 0.20 | 0.85 | CN(C(=O)c1cnc(SCc2cncn2C)n1C)c1cccnc1 [I-A-114] | 
2 | 0.76 | 1.12 | CN(C(=O)c1cnc(SCc2ccn(C)n2)n1C)c1cccnc1 [I-A-115] | 
3 |  | 0.89 | CN(C(=O)c1cnc(SCc2nccn2C)n1C)c1cccnc1 [I-A-118] | 
4 | 2.51 | 2.62 | CN(C(=O)c1cnc(SCc2ccc(Cl)c(Cl)c2)n1C)c1cccnc1 [I-A-121] | 
5 | 2.32 | 2.44 | Cc1cccc(C)c1CSc1ncc(C(=O)N(C)c2cccnc2)n1C [I-A-129] | 
6 | 1.06 | 1.22 | COC(=O)C(C)(C)NC(=O)CSc1ncc(C(=O)N(C)c2cccnc2)n1C [I-A-133] | 
7 | 1.12 | 1.27 | COC(=O)c1cnc(Sc2ncc(C(=O)N(C)c3cccnc3)n2C)n1C [I-A-143] | 

The next lines start with the compound.

Row | SMILES | logP[a] [1] | logP[b] [1] | also measured
8 | CN(C(=O)c1cncn1Cc1ccccc1)c1cccnc1 [1-benzyl-N-methyl-N-(pyridin-3-yl)-1H-imidazole-5-carboxamide] |  |  | chromatographic logP [1, 3]: 0.85; chromatographic logP ([1]; pH 7.8, neutral range, pH 7.8, 0.001 molar aqueous ammonium hydrogencarbonate / acetonitrile, read-out: log P[n]): 1.4
9 | CN(C(=O)c1c(Br)nc(Sc2ncccn2)n1C)c1cccnc1 [I-A-13] | 1.25 | 1.31 | 
10 | CN(C(=O)c1cnc(Sc2ccccc2[N+](=O)[O-])n1C)c1cccnc1 [I-A-16] | 1.68 | 1.78 | efficacy (aphids killed) [2]: 90%
11 | CN(C(=O)c1cnc(SC2CCCCC2)n1C)c1cccnc1 [I-A-17] | 1.89 | 2.26 | 
12 | CC(=O)CSc1ncc(C(=O)N(C)c2cccnc2)n1C [I-A-23] | 0.67 and 0.71 |  | efficacy (aphids killed) [2]: 90%
13 | CCOC(=O)CSc1ncc(C(=O)N(C)c2cccnc2)n1C [I-A-24] | 1.20 | 1.34 | efficacy (aphids killed) [2]: 90%
14 | COC(=O)CSc1ncc(C(=O)N(C)c2cccnc2)n1C [I-A-25] | 0.88 | 1.09 | efficacy (aphids killed) [2]: 90%
15 | CN(C(=O)c1cnc(SCC(=O)C(C)(C)C)n1C)c1cccnc1 [I-A-28] | 1.53 | 1.78 | efficacy (aphids killed) [2]: 90%
16 | CN(C(=O)c1cnc(SCC(=O)O)n1C)c1cccnc1 [I-A-29] | 0.28 | 1.05 | 
17 | CN(C(=O)c1cnc(SCC(=O)C2CC2)n1C)c1cccnc1 [I-A-31] | 0.97 | 1.28 | efficacy (aphids killed) [2]: 90%
18 | CN(C(=O)c1cnc(SCC(N)=O)n1C)c1cccnc1 [I-A-32] | 0.11 | 0.50 | 
19 | CNC(=O)CSc1ncc(C(=O)N(C)c2cccnc2)n1C [I-A-33] |  |  | chromatographic logP [1, 4]: 0.33; chromatographic logP [1, 5]: 0.62
20 | CN(C)C(=O)CSc1ncc(C(=O)N(C)c2cccnc2)n1C [I-A-34] | 0.59 | 0.81 | 
21 | CCSc1ncc(C(=O)Nc2cccnc2)n1C [I-A-41] | 0.71 | 1.54 | efficacy (aphids killed) [2]: 90%
22 | CNC(=O)CS(=O)(=O)c1ncc(C(=O)N(C)c2cccnc2)n1C [I-A-42] | 0.35 | 0.55 | 
23 | CN(C(=O)c1cnc(Sc2ccc(C(C)(C)C)cc2)n1C)c1cccnc1 [I-A-63] | 2.75 | 2.92 | 
24 | CN(C)C(=O)c1ccccc1Sc1ncc(C(=O)N(C)c2cccnc2)n1C [I-A-67] | 1.17 | 1.25 | efficacy (aphids killed) [2]: 90%
25 | CN(C(=O)c1cnc(Sc2cccc([N+](=O)[O-])c2)n1C)c1cccnc1 [I-A-68] | 1.71 | 1.77 | efficacy (aphids killed) [2]: 100%
26 | COc1ccccc1Sc1ncc(C(=O)N(C)c2cccnc2)n1C [I-A-72] | 1.59 | 1.74 | 
27 | CN(C(=O)c1cnc(S(=O)(=O)c2cccc(Cl)c2)n1C)c1cccnc1 [I-A-73] | 1.81 | 1.87 | efficacy (aphids killed) [2]: 90%
28 | CN(C(=O)c1cnc([S+]([O-])c2cccc(Cl)c2)n1C)c1cccnc1 (stereo not drawn) [I-A-74] | 1.45 | 1.55 | efficacy (aphids killed) [2]: 90%
29 | CN(C(=O)c1cnc([S+]([O-])c2ccc(C(C)(C)C)cc2)n1C)c1cccnc1 (stereo not drawn) [I-A-75] | 2.14 | 2.19 | efficacy (aphids killed) [2]: 90%

Row | SMILES | logP[a] [1] | logP[b] [1] | also measured
30 | CN(C(=O)c1cnc(S(=O)(=O)c2ccc(C(C)(C)C)cc2)n1C)c1cccnc1 [I-A-76] | 2.53 | 2.55 | 
31 | COc1ccc(S(=O)(=O)c2ncc(C(=O)N(C)c3cccnc3)n2C)cc1 [I-A-81] | 1.53 | 1.58 | 
32 | CN(C(=O)c1cnc(S(=O)(=O)c2ccc(F)cc2)n1C)c1ccc[n+]([O-])c1 [I-A-83] |  |  | chromatographic logP [1, 4]: 1.12; chromatographic logP [1, 5]: 1.23; pest or weed control at 500 g/ha ([2]; Myzus persicae, foliar, read-out: efficacy (aphids killed)): 90%
33 | CN(C(=O)c1cnc(S(=O)(=O)c2ccccn2)n1C)c1cccnc1 [I-A-85] | 1.01 | 1.10 | 
34 | CN(C(=O)c1cnc(S(=O)(=O)c2ccccc2)n1C)c1cccnc1 [I-A-88] | 1.37 | 1.47 | 
35 | CN(C(=O)c1cnc(S(=O)(=O)c2ccc([N+](=O)[O-])cc2)n1C)c1cccnc1 [I-A-90] | 1.58 | 1.68 | 
36 | CN(C)C(=O)c1cccc([S+]([O-])c2ncc(C(=O)N(C)c3cccnc3)n2C)c1 (stereo not drawn) [I-A-91] | 0.76 | 0.96 | 
37 | CN(C)C(=O)c1ccccc1S(=O)(=O)c1ncc(C(=O)N(C)c2cccnc2)n1C [I-A-92] | 1.12 | 1.29 | 
38 | CCN(C(=O)c1cnc(Sc2ncccn2)n1C)c1cccnc1 [I-A-98] | 1.04 | 1.22 | efficacy (aphids killed) [2]: 90%
39 | CN(C(=O)c1cnc(Sc2ncccn2)n1Cc1ccccc1)c1cccnc1 [I-A-111, 1-benzyl-N-methyl-N-(pyridin-3-yl)-2-(pyrimidin-2-ylsulphanyl)-1H-imidazole-5-carboxamide] |  |  | chromatographic logP [1, 4]: 1.73; chromatographic logP [1, 5]: 1.78
40 | Cc1cc(C)nc(Sc2ncc(C(=O)O)n2C)n1 [IV-1] |  |  | log P[a] [1, 6]: 0.81
41 | Cn1c(C(=O)O)cnc1SCC1CC1 [IV-2] |  |  | log P[a] [1, 6]: 0.62; log P[n] [1, 7]: −0.18
42 | Cn1c(C(=O)O)cnc1Br [IX-1, 1-methyl-2-bromoimidazole-5-carboxylic acid] |  |  | chromatographic logP [1, 3]: 0.31
43 | COC(=O)c1cnc(Sc2nc(C)cc(C)n2)n1C [VIII-1] |  |  | log P[a] [1, 6]: 1.78; log P[n] [1, 7]: 1.80
44 | COC(=O)c1cnc(SCC2CC2)n1C [VIII-2] |  |  | log P[a] [1, 6]: 2.06; log P[n] [1, 7]: 2.26
45 | CN(C(=O)c1cnc(Br)n1C)c1cccnc1 [XI-1] |  |  | log P[a] [1, 6]: 0.65; log P[n] [1, 7]: 0.93
46 | Cn1cc(C(=O)O)nc1Br [XIX-1, 2-bromo-1-methyl-1H-imidazole-4-carboxylic acid] |  |  | chromatographic logP [1, 3]: 0
47 | CN(C(=O)c1cncn1C)c1cccnc1 [XV-1] |  |  | log P[n] [1, 7]: 0.42
48 | Cn1cnc(C(=O)OC(C)(C)C)c1 [XVII-1, tert-butyl 1-methyl-1H-imidazole-4-carboxylate] |  |  | chromatographic logP [1, 3]: 0.74
49 | Cn1cc(C(=O)OC(C)(C)C)nc1Br [XVIII-1, tert-butyl 2-bromo-1-methyl-1H-imidazole-4-carboxylate] |  |  | chromatographic logP [1, 3]: 1.27
50 | CN(C(=O)c1cn(C)c(Br)n1)c1cccnc1 [XXI-1] |  |  | log P[n] [1, 7]: 0.76
